Experimental data as given in patent US9566262B2, “Itch suppression by fucoxanthin” (THE RITSUMEIKAN TRUST, priority 2015, dated 2017).
“Also recorded” adds a separate entry of the source.

Key:
[1] = tested on: bone marrow-derived mast cells (BMMCs); assay: Degranulation of BMMCs, β-hexosaminidase release after anti-DNP-IgE / DNP-HSA stimulation; format: cell-based, mice; conditions: pre-treated with 0.1 μM, 1 μM or 10 μM before DNP-HSA stimulation, vs DMSO
Method: The degranulation of BMMCs was evaluated by measuring β-hexosaminidase activity in the culture solution of the mature mast cells. Bone marrow cells obtained from 8-week-old female mice were cultured in a medium for conditioning containing interleukin-3 (IL-3) for 4 weeks to give mature mast cells. The mature mast cells thus prepared were cultured in 24-well plate (5×10^3 cells/well) overnight, and sensitized with 50 ng/mL anti-DNP-IgE (Sigma Chemicals) at 37° C. for 2 hours. The cells were rinsed by MT buffer (137 mmol/L NaCl, 2.7 mmol/L KCl, 1.8 mmol/L CaCl2, 1 mmol/L MgCl2.6H2O, 5.6 mmol/L glucose, 20 mmol/L HEPES, 0.1% BSA, pH7.3), and pre-treated with 0.1 μM, 1 μM or 10 μM fucoxanthin, or dimethyl sulfoxide (DMSO) for 10 minutes. Then, the cells were treated with 2.5 μg/mL DNP-labeled human serum albumin (Sigma Chemicals) at 37° C. for 30 minutes. After incubation, the supernatant was transferred to a 96-well plate and incubated with 3.3 mM p-nitrophenyl-2-acetamide-2-deoxy-β-glucopyranoside at 37° C. for 25 minutes. Absorbance at 405 nm was measured using microplate reader. The results are shown as percentage of total β-hexosaminidase.

loricrin (Lor) = assay: Immunohistochemical analysis of skin of NC/Nga mice; format: in vivo; conditions: topical treatment for 5 weeks, vs Vaseline
Method: (§1) Vaseline or fucoxanthin and PiCl were applied to the mice in the same manner as described in Example 2. At 5 weeks after starting application of Vaseline or fucoxanthin, the mice were sacrificed the mice skins were fixed with 4% paraformaldehyde and analyzed according to the method described in Kosaka, T. et al. (supra). The skin section (10 μm thick) was analyzed immunohistochemically using a rabbit anti-filaggrin antibody (Santa Cruz Biotechnology, Inc.) and a rabbit anti-loricrin antibody (Covance). Then, the sample was reacted with an FITC-conjugated anti-rabbit IgG IgG (Santa Cruz Biotechnology, Inc.).

filaggrin (Flg) = assay: as above; format: in vivo; conditions: topical treatment for 5 weeks, vs Vaseline
Method: as §1

NC/Nga mice [2] = assay: Swelling (length) of the auricular lymph node in NC/Nga mice; format: in vivo; conditions: topical application for 5 weeks, PiCl-sensitized, vs Vaseline
Description: NC/Nga mice (5 weeks old, female) were purchased from Japan SLC, Inc. […] On day 12, day 19, day 26 and day 33 after starting application of Vaseline or fucoxanthin, 0.8% picryl chloride (PiCl) was further applied to the back skin of the mice. The behaviors of the mice were observed by video monitoring. On day 34 after starting application of Vaseline or fucoxanthin, bromodeoxyuridine (BrdU, Nacalai Tesque) (0.[…] weight) was intraperitoneally administered to the mice. At 5 weeks after starting application of Vaseline or fucoxanthin, the time each mouse spent for scratching behavior in 10 minutes was measured by video monitoring. Then, the mice were sacrificed and the auricular lymph node, blood and skin were obtained. Serum IgE content was determined by enzyme-linked immunosorbent assay (ELISA) using Mouse IgE Assay Kit (Morinaga Institute of Biological Science, Inc.). […] BrdU uptake was determined by ELISA using Cell Proliferation ELISA, BrdU (Colorimetric) (Roche Diagnostics K.K.). […] Also, serum IgE levels and swelling of the auricular lymph nodes of the mice were determined in the same manner as described in Example 2.

[3] = tested on: bone marrow-derived mast cells (BMMCs); assay: Granule formation in BMMCs, tryptase immunostaining; format: cell-based, mice; conditions: 10 μM, vs control-treated cells
Method: Mature mast cells were prepared in the same manner as described in Example 5. The BMMCs obtained were mounted on a glass slide and heat-fixed. The analysis of the preparation was performed according to the method described in Kosaka, T., Fukui, R., Matsui, M. et al. (2014) “RAGE, Receptor of Advanced Glycation Endoproducts, Negatively Regulates Chondrocytes Differentiation.” PLoS ONE 9(10): e108819. Briefly, the cells were reacted with a mouse anti-mast cell tryptase antibody (AB2378, Abcam, Tokyo, Japan) and then reacted with an FITC-conjugated anti-mouse IgG (Santa Cruz Biotechnology, Inc.) and 1 μg/mL DAPI (4′,6-diamino-2-phenylindole dihydrochloride). The fluorescent image was analyzed by EVOS® FL Cell Imaging System (Life Technologies Corp).
To confirm where the effect of fucoxanthin on granule formation in mast cells is specific rather than common to carotenoids, we compared granule formation between fucoxanthin-treated and astaxanthin-treated BMMCs by immunostaining of tryptase. The immunostaining assay was performed in the same manner as described in Example 6.

bone marrow cells = assay: Formation of bone marrow-derived mast cells (BMMCs) from bone marrow cells; format: cell-based, mice; conditions: 0.1 μM, 1 μM or 10 μM, vs DMSO
Method: Bone marrow cells were obtained from 8-week-old female mice and cultured in a medium for conditioning that contained WEHI-3 cells (National Institute of Biomedical Innovation, Health and Nutrition). The culture was performed according to the method described in Yamashita, U. et al. (2005) “Strain difference of murine bone marrow-derived mast cell functions.” J. Leukoc. Biol. 78(3): 605-611. The bone marrow cells were treated with 0.1 μM, 1 μM or 10 μM fucxanthin, or dimethyl sulfoxide (DMSO) as a control. The number of BMMCs containing 10 fields (100 μm×100 μm) per well was counted (FIG. 2C).

NC/Nga mice [4] = assay: Toluidine blue staining of skin specimens, number of TB-positive (mast) cells; format: in vivo; conditions: 0.1% fucoxanthin in Vaseline, 5 weeks, vs Vaseline-applied mice
Method: In the same manner as described in Example 2, Vaseline or fucoxanthin and PiCl were applied to NC/Nga mice. At 5 weeks after starting application of Vaseline or fucoxanthin, the mice were sacrificed, the mice skins were fixed with 4% paraformaldehyde and embedded in paraffin. The skin specimen was stained with toluidine blue (TB) (pH=4.1). Imaging of the stained specimen was performed by Virtual Slide System (Olympus).

CC(=O)O[C@H]1CC(C)(C)C(=C=C/C(C)=C/C=C/C(C)=C/C=C/C=C(C)/C=C/C=C(\C)C(=O)C[C@@]23O[C@]2(C)C[C@@H](O)CC3(C)C)[C@](C)(O)C1 [fucoxanthin]
release of β-hexosaminidase (degranulation) [1]: suppressed release of β-hexosaminidase in a dose-dependent manner | loricrin expression in the epidermis (immunohistochemistry) (loricrin (Lor)): elevated; also recorded: distributed in the whole skin | filaggrin expression in the epidermis (immunohistochemistry) (filaggrin (Flg)): elevated; also recorded: abundantly localized in the stratum corneum | swelling of the auricular lymph node (ear swelling) (NC/Nga mice [2]): neither ear swelling (FIG. 9A) nor serum IgE level (FIG. 9B) were affected; also recorded: failed to attenuate lymph inflammation; also recorded: not affected | granule formation (tryptase-positive cells / immunoreactivity against tryptase) [3]: remarkably reduced; also recorded: No tryptase-positive cell; also recorded: suppressed granule formation; also recorded: almost completely inhibited granule formation | BMMC formation (number of BMMCs) (bone marrow cells): suppressed BMMC formation in a dose-dependent manner | number of toluidine blue (TB)-positive cells in skin (NC/Nga mice [4]): remarkably lower
